Laboratory results as given in PubChem BioAssay (NCI).
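The compound was tested at five concentrations on cells cultured in 96-well plates, with a 48-hour exposure period. The concentration for full growth arrest is given as TGI.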

Assays:
Assay in all cases: NCI anticancer screen, dose series, 48 h
[1] = system: NCI-H23 lung
[2] = system: NCI-H522 lung
[3] = system: KM12 colon
[4] = system: K-562 leukemia
[5] = system: NCI-H460 lung
[6] = system: 786-0 renal
[7] = system: A549 NSCLC
[8] = system: HS 578T breast
[9] = system: RXF 393 renal
[10] = system: SK-OV-3 ovarian
[11] = system: MCF7 breast
[12] = system: PC-3 prostate
[13] = system: SF-539 CNS
[14] = system: OVCAR-3 ovarian
[15] = system: MOLT-4 leukemia
[16] = system: LOX IMVI melanoma
[17] = system: SW-620 colon
[18] = system: SR leukemia
[19] = system: UACC-257 melanoma
[20] = system: SF-295 CNS
[21] = system: M14 melanoma
[22] = system: MDA-N
[23] = system: IGROV1 ovarian
[24] = system: OVCAR-4 ovarian
[25] = system: SNB-75 CNS
[26] = system: UACC-62 melanoma
[27] = system: UO-31 renal
[28] = system: NCI-H226 lung
[29] = system: EKVX NSCLC
[30] = system: BT-549 breast
[31] = system: HCT-116 colon
[32] = system: ACHN renal
[33] = system: CCRF-CEM leukemia
[34] = system: OVCAR-5 ovarian
[35] = system: U251 CNS
[36] = system: HT29 colon
[37] = system: DU-145 prostate
[38] = system: HOP-92 NSCLC
[39] = system: MDA-MB-435
[40] = system: SF-268 CNS
[41] = system: OVCAR-8 ovarian
[42] = system: TK-10 renal
[43] = system: SNB-19 CNS
[44] = system: HL-60(TB) leukemia
[45] = system: NCI/ADR-RES ovarian
[46] = system: HOP-62 NSCLC
[47] = system: A498 renal
[48] = system: SK-MEL-28 melanoma
[49] = system: MDA-MB-231 breast
[50] = system: MALME-3M melanoma
[51] = system: CAKI-1 renal
[52] = system: SK-MEL-5 melanoma
[53] = system: COLO 205 colon
[54] = system: HCC-2998 colon
[55] = system: HCT-15 colon
[56] = system: SK-MEL-2 melanoma
[57] = system: RPMI-8226 leukemia

Structure (SMILES): Cc1cc2cc3ccccc3cc2c(=O)[nH]1
- TGI [1]: > 10 µM
- TGI [2]: > 10 µM
- TGI [3]: > 10 µM
- TGI [4]: > 10 µM
- TGI [5]: > 10 µM
- TGI [6]: > 10 µM
- TGI [7]: > 10 µM
- TGI [8]: > 10 µM
- TGI [9]: > 10 µM
- TGI [10]: > 10 µM
- TGI [11]: > 10 µM
- TGI [12]: > 10 µM
- TGI [13]: > 10 µM
- TGI [14]: > 10 µM
- TGI [15]: > 10 µM
- TGI [16]: > 10 µM
- TGI [17]: > 10 µM
- TGI [18]: > 10 µM
- TGI [19]: > 10 µM
- TGI [20]: > 10 µM
- TGI [21]: > 10 µM
- TGI [22]: > 10 µM
- TGI [23]: > 10 µM
- TGI [24]: > 10 µM
- TGI [25]: > 10 µM
- TGI [26]: > 10 µM
- TGI [27]: > 10 µM
- TGI [28]: > 10 µM
- TGI [29]: > 10 µM
- TGI [30]: > 10 µM
- TGI [31]: > 10 µM
- TGI [32]: > 10 µM
- TGI [33]: > 10 µM
- TGI [34]: > 10 µM
- TGI [35]: > 10 µM
- TGI [36]: > 10 µM
- TGI [37]: > 10 µM
- TGI [38]: > 10 µM
- TGI [39]: > 10 µM
- TGI [40]: > 10 µM
- TGI [41]: > 10 µM
- TGI [42]: > 10 µM
- TGI [43]: > 10 µM
- TGI [44]: > 10 µM

Structure (SMILES): Clc1ccc(-c2nc3ccc4ccccc4c3c3c2CCCC3)cc1
- TGI [1]: > 100 µM
- TGI [2]: > 100 µM
- TGI [45]: > 100 µM
- TGI [3]: > 100 µM
- TGI [4]: > 100 µM
- TGI [5]: > 100 µM
- TGI [46]: > 100 µM
- TGI [6]: > 100 µM
- TGI [47]: > 100 µM
- TGI [7]: > 100 µM
- TGI [8]: > 100 µM
- TGI [9]: > 100 µM
- TGI [10]: > 100 µM
- TGI [11]: > 100 µM
- TGI [48]: > 100 µM
- TGI [13]: > 100 µM
- TGI [49]: > 100 µM
- TGI [14]: > 100 µM
- TGI [50]: > 100 µM
- TGI [15]: > 100 µM
- TGI [51]: > 100 µM
- TGI [52]: > 100 µM
- TGI [53]: > 100 µM
- TGI [17]: > 100 µM
- TGI [19]: > 100 µM
- TGI [20]: > 100 µM
- TGI [21]: > 100 µM
- TGI [22]: > 100 µM
- TGI [23]: > 100 µM
- TGI [25]: > 100 µM
- TGI [26]: > 100 µM
- TGI [54]: > 100 µM
- TGI [55]: > 100 µM
- TGI [27]: > 100 µM
- TGI [28]: > 100 µM
- TGI [29]: > 100 µM
- TGI [30]: > 100 µM
- TGI [31]: > 100 µM
- TGI [56]: > 100 µM
- TGI [33]: > 100 µM
- TGI [34]: > 100 µM
- TGI [35]: > 100 µM
- TGI [36]: > 100 µM
- TGI [57]: > 100 µM
- TGI [37]: > 100 µM
- TGI [39]: > 100 µM
- TGI [40]: > 100 µM
- TGI [41]: > 100 µM
- TGI [42]: > 100 µM
- TGI [43]: > 100 µM
